# Results published in ChEMBL document CHEMBL3272227, “Conformationally restricted analogs of histamine H1 receptor antagonists: trans and cis-1-benzyl-3-dimethylamino-6-phenylpiperidine” (J Med Chem, 1976).
# The source made the active and inactive calls. The rule behind the calls is not given here.
# Experiments:
# [1] = biological target: Histamine H1 receptor (Cavia porcellus) (UniProt P31389); experiment: Antagonist activity at histamine H1 receptor in guinea pig ileum assessed as inhibition of histamine-induced contraction treated for 15 mins prior to histamine challenge; format: tissue-based
# Sequence of Histamine H1 receptor (Cavia porcellus) (P31389 whole entry): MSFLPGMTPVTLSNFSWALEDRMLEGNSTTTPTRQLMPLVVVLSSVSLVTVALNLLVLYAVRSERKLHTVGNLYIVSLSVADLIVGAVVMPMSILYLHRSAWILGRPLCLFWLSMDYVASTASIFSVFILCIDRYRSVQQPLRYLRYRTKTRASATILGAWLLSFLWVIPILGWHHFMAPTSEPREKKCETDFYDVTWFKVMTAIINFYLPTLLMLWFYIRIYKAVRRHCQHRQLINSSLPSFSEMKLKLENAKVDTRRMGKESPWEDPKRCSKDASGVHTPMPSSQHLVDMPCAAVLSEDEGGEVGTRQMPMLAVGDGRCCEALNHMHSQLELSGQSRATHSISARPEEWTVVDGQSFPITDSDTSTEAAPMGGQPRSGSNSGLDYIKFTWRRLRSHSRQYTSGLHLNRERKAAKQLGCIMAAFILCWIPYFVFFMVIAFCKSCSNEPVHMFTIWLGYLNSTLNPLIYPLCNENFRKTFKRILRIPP
# Ileum [2] = experiment: Inhibition of acetylcholine-induced contraction in guinea pig ileum treated for 15 mins prior to acetylcholine challenge; format: functional; conditions: Cavia porcellus, read-out: ED50 (the source's name)
# Ileum [3] = experiment: Inhibition of barium chloride-induced contraction in guinea pig ileum at 5 uM; format: functional; conditions: Cavia porcellus
# [4] = biological target: Histamine N-methyltransferase (Cavia porcellus, UniProt Q9EST2); experiment: Inhibition of histamine N-methyltransferase in guinea pig brain using S-adenosyl-L-methionine-14C as substrate by scintillation spectrophotometer
# Sequence of Histamine N-methyltransferase (Q9EST2 whole entry): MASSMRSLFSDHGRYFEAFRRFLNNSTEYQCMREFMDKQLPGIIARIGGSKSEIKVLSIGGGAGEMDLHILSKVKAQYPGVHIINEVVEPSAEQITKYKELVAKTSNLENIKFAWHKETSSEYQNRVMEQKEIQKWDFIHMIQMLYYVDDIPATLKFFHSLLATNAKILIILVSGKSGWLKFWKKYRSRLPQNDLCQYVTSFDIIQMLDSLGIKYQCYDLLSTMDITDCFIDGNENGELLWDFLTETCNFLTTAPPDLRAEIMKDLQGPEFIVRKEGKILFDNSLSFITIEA
# [5] = biological target: Histamine H1 receptor (Cavia porcellus) (UniProt P31389); experiment: Antagonist activity at histamine H1 receptor in guinea pig ileum assessed as inhibition of histamine-induced contraction at 50 nM treated for 15 mins prior to histamine challenge; format: tissue-based
# Ileum [6] = experiment: Inhibition of barium chloride-induced contraction in guinea pig ileum at 2 uM; format: functional; conditions: Cavia porcellus
# [7] = biological target: Histamine H1 receptor (Cavia porcellus) (UniProt P31389); experiment: Antagonist activity at histamine H1 receptor in guinea pig ileum assessed as inhibition of histamine-induced contraction at 10 nM treated for 15 mins prior to histamine challenge; format: tissue-based
# [8] = biological target: Histamine H1 receptor (Cavia porcellus) (UniProt P31389); experiment: Antagonist activity at histamine H1 receptor in guinea pig ileum assessed as inhibition of histamine-induced contraction at 0.1 uM treated for 15 mins prior to histamine challenge; format: tissue-based
# Ileum [9] = experiment: Inhibition of acetylcholine-induced contraction in guinea pig ileum at 0.1 uM treated for 15 mins prior to acetylcholine challenge; format: functional, tissue-based; conditions: Cavia porcellus
SMILES,ED50 [1] [µM],EC50 (Ileum [2]) [µM],Ki [4] [µM],also measured
CN(C)[C@H]1CC[C@H](c2ccccc2)N(Cc2ccccc2)C1 (relative stereo),6.72,2.9,247,inhibition at 5 µM (Ileum [3]): 39%
CN(C)[C@@H]1C[C@H](c2ccccc2)N(c2ccccc2)C1 (relative stereo),–,–,–,inhibition [5]: 45%
CN(C)[C@@H]1CC[C@H](c2ccccc2)N(Cc2ccccc2)C1 (relative stereo),1.83,1.45,31.6,inhibition at 2 µM (Ileum [6]): 50%
CN(C)[C@H]1C[C@H](c2ccccc2)N(c2ccccc2)C1 (relative stereo),–,–,–,inhibition [7]: 85%
CN(C)CCN(Cc1ccccc1)c1ccccn1,–,–,–,inhibition [8]: 66%; inhibition (Ileum [9]): inactive
